“And” between values parts separate entries of the source, which are not always exact repeats. Equal values may be shown once. Read-outs that look alike come from different tables or passages of the source.
What was measured:
[1] = test system: SARS-CoV-2 (Omicron EG.5.1) and MERS-CoV; format: cell-based
COVID-19 = details: human, in vivo; cited from earlier work
SARS-CoV-2 USA-WA1/2020 = test system: SARS-CoV-2 USA-WA1/2020; set-up: species or system transgenic K18-hACE2 mice; details: mouse, in vivo
in vitro [2] = details: African green monkey
MERS-CoV replicon = assay: microbe, parasite or virus in culture; format: cell-based; details: Middle East respiratory syndrome-related coronavirus, A549, read-out: EC50 Geomean
[3] = in vivo; cited from earlier work
hCoV-229E = assay: microbe, parasite or virus in culture; format: cell-based; details: Human coronavirus 229E, Huh-7, 120 h, read-out: EC50 Geomean
in vitro [4] = details: human
SARS-CoV-2 replicon [5] = assay: microbe, parasite or virus in culture; details: Severe acute respiratory syndrome coronavirus 2, A549, read-out: EC50 Geomean
SARS-CoV-2 = assay: microbe, parasite or virus in culture; format: cell-based
MERS-CoV [6] = assay: microbe, parasite or virus in culture; format: cell-based; details: for EC90: read-out: EC90 Mean ± SD
hCoV-OC43 = assay: microbe, parasite or virus in culture; format: cell-based; details: Betacoronavirus 1, OC43, Huh-7, 120 h, read-out: EC50 Geomean
MERS-CoV [7] = assay: microbe, parasite or virus in culture; format: cell-based; details: read-out: IC50 Mean ± SD
MERS-CoV EMC 2012 = details: mouse, in vivo
SARS-CoV-2 replicon [8] = details: read-out: EC50 Geomean
[9] = in vivo
hCoV-HKU1 3CLPro = hCoV-HKU1 3CLPro (Human coronavirus HKU1, UniProt P0C6X2); assay: biochemical
Sequence of hCoV-HKU1 3CLPro (P0C6X2 3335-3637 limits assumed): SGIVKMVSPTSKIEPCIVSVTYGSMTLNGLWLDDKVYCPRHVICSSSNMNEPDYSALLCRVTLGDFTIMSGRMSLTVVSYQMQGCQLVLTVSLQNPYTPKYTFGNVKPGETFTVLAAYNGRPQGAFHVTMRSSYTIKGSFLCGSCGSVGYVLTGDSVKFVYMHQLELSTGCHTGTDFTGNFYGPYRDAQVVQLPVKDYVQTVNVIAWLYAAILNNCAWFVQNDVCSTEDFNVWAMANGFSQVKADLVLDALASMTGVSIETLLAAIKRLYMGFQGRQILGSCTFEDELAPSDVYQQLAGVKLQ

MERS-CoV 3CLPro = MERS-CoV 3CLPro (Middle East respiratory syndrome-related coronavirus, UniProt K9N7C7); assay: biochemical
Sequence of MERS-CoV 3CLPro (K9N7C7 3248-3553 limits assumed): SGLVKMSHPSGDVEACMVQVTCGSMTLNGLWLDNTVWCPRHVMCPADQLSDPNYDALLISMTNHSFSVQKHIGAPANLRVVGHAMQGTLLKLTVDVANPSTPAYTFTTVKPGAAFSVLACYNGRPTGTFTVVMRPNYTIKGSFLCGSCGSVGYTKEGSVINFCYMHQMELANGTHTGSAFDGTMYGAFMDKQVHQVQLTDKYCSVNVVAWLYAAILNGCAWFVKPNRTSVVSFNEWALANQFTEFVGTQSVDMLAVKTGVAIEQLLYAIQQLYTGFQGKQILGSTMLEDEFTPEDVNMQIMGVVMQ

in vivo = details: female, CD-1, mouse; for AUC: po
hCoV-229E 3CLPro = hCoV-229E 3CLPro (Human coronavirus 229E, UniProt P0C6X1); assay: biochemical
Sequence of hCoV-229E 3CLPro (P0C6X1 2966-3267 limits assumed): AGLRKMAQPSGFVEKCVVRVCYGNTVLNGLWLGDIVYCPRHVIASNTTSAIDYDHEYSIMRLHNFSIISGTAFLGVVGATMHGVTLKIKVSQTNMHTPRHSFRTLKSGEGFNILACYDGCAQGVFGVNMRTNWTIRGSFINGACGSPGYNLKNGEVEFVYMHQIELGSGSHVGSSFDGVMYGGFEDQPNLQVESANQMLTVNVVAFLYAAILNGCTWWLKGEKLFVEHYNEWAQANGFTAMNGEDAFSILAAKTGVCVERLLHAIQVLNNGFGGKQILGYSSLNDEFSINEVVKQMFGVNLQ

hCoV-NL63 3CLPro = hCoV-NL63 3CLPro (Human coronavirus NL63, UniProt P0C6X5); assay: biochemical
Sequence of hCoV-NL63 3CLPro (P0C6X5 2940-3242 limits assumed): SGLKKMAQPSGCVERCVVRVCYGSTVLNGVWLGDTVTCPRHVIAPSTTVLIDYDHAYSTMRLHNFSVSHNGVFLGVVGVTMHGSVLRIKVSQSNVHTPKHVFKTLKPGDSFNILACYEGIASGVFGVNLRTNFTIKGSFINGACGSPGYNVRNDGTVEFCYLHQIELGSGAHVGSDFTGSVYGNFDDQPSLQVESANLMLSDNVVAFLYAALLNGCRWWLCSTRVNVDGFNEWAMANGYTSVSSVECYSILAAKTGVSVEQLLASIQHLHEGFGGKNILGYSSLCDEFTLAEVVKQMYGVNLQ

SARS-CoV-1 3CLPro = SARS-CoV-1 3CLPro (Severe acute respiratory syndrome coronavirus, UniProt P0C6X7); assay: biochemical
[10] = K18-hDPP4, mouse, in vivo
hCoV-OC43 3CLPro = hCoV-OC43 3CLPro (Human coronavirus OC43, UniProt P0C6X6); assay: biochemical
Sequence of hCoV-OC43 3CLPro (P0C6X6 3247-3549 limits assumed): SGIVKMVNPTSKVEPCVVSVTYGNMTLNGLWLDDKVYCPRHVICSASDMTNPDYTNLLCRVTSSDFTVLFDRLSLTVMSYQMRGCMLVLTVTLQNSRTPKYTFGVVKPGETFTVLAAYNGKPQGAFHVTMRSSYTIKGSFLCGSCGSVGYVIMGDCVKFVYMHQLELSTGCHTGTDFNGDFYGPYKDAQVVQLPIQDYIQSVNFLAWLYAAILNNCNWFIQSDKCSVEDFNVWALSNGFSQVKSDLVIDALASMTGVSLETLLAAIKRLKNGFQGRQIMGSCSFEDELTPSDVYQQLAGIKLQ

[11] = Severe acute respiratory syndrome coronavirus 2, read-out: EC50 Geomean
[12] = Middle East respiratory syndrome-related coronavirus, VeroE6/TMPRSS2, 72 h, read-out: EC50 Mean ± SD
[13] = Middle East respiratory syndrome-related coronavirus, read-out: EC50 Geomean
[14] = Middle East respiratory syndrome-related coronavirus
[15] = Middle East respiratory syndrome-related coronavirus, VeroE6/TMPRSS2, 48 h

COc1cc2c(cc1OC)CN(CCc1ccc(NC(=O)c3cccc4c(=O)c5cccc(OC)c5[nH]c34)cc1)CC2 [elacridar]
toxicity of P-GP inhibitor to cells (Vero E6+TMPRSS2 cells): not toxic | effect of P-GP inhibitor on the infection [1]: did not show an effect on the infection

CC(C)(C)[C@H](NC(=O)C(F)(F)F)C(=O)N1C[C@H]2[C@@H]([C@H]1C(=O)N[C@H](C#N)C[C@@H]1CCNC1=O)C2(C)C [Nirmatrelvir, nirmatrelvir]
reduction in hospitalization rates and deaths (COVID-19): 80–90% | lung pathology compared with vehicle group (H&E, semi-quantitative) (SARS-CoV-2 USA-WA1/2020): similar | lung viral loads (TCID50), dose validation (SARS-CoV-2 USA-WA1/2020): significant reduction in the lung viral loads | viral lung burden (TCID50 and PFU assay) (SARS-CoV-2 USA-WA1/2020): ~ 6 logs | CC50 (in vitro [2]): > 100000 nM | EC50 (MERS-CoV replicon): 60 nM | increase of plasma levels by ritonavir [3]: up to 20 fold | EC50 (hCoV-229E): 473 nM | EC50 (in vitro [4]): > 36000 nM | EC50 (SARS-CoV-2 replicon [5]): 10 nM | EC50 (SARS-CoV-2; [11]): 70 nM | EC50 (SARS-CoV-2; read-out: EC50 Mean ± SD): 50 ± 10 nM | EC50 (MERS-CoV [6]; [12]): 88 ± 30 nM | EC50 (MERS-CoV [6]; [13]): 70 nM | EC90 (MERS-CoV [6]; [14]): 164 ± 10 nM | EC50 (hCoV-OC43): 163 nM | IC50 (MERS-CoV [7]; [15]): 117 ± 23 nM | lung viral loads (TCID50), dose validation (MERS-CoV EMC 2012): significant reduction in the lung viral loads

CCC(CC)COC(=O)[C@H](C)N[P@](=O)(OC[C@H]1O[C@@](C#N)(c2ccc3c(N)ncnn23)[C@H](O)[C@@H]1O)Oc1ccccc1 [Remdesivir, remdesivir]
CC50 (in vitro [2]): 20000 nM | EC50 (MERS-CoV replicon): 780 nM | EC50 (SARS-CoV-2 replicon [5]): 270 nM | EC50 (SARS-CoV-2; Severe acute respiratory syndrome coronavirus 2, VeroE6/TMPRSS2, 72 h, read-out: EC50 Mean ± SD): 149 ± 4 nM | EC50 (SARS-CoV-2; [11]): 170 nM | EC50 (SARS-CoV-2; read-out: EC50 Mean ± SD): 110 nM and 163 nM and 94 nM and 155 nM and 90 nM and 141 nM and 150 nM | EC50 (MERS-CoV [6]; [12]): 110 ± 18 nM | EC50 (MERS-CoV [6]; [13]): 150 nM | EC90 (MERS-CoV [6]; [14]): 240 ± 93 nM | shift in activity in the presence versus the absence of the P-GP inhibitor [1]: significant shift in activity | IC50 (MERS-CoV [7]; [15]): 167 ± 33 nM

CNC(=O)C(=O)[C@H](CCC(C)(F)F)NC(=O)[C@@H]1[C@H]2CCC[C@H]2CN1C(=O)[C@@H](NC(=O)OC)C(C)(C)C [MK-7845]
body weight change (SARS-CoV-2 USA-WA1/2020): gained weight | lung pathology (H&E, semi-quantitative) (SARS-CoV-2 USA-WA1/2020): significantly reduced | lung pathology compared with vehicle group (H&E, semi-quantitative) (SARS-CoV-2 USA-WA1/2020): similar | reduction in lung viral load (TCID50) (SARS-CoV-2 USA-WA1/2020): no significant reduction in viral load | reduction in viral burden (TCID50) versus the nirmatrelvir group (SARS-CoV-2 USA-WA1/2020): 3.4 log and 5 log | reduction in viral load by PFU assay compared to vehicle control (SARS-CoV-2 USA-WA1/2020): did not show a significant reduction in viral load | reduction of lung viral load (TCID50) compared to vehicle control (SARS-CoV-2 USA-WA1/2020): ~ 5 logs and ~ 6 logs | reduction in viral burdens in the lungs (SARS-CoV-2 USA-WA1/2020; po): > 6 log orders | EC50 (SARS-CoV-2 replicon [8]): 15 nM | plasma concentrations versus PBA EC90 ([9]; CD-1, mouse): above the PBA EC90 | total plasma concentrations versus replicon EC90 and PBA EC90 ([9]; mouse): stayed above | IC50 (hCoV-HKU1 3CLPro): 25.5 nM | CC50 (in vitro [2]): > 100000 nM | EC50 (MERS-CoV replicon): 270 nM | IC50 (MERS-CoV 3CLPro): 318 nM | EC50 (hCoV-229E): 3150 nM | Vd (in vivo; iv, 5 mg/kg): 1.2 L/kg | clearance (in vivo; iv, 5 mg/kg): 17.5 mL/min/kg | half-life (in vivo; iv, 5 mg/kg): 47.4 min | AUC (in vivo; 100 mg/kg): 49.1 µg·h/mL | AUC (in vivo; 250 mg/kg): 146 µg·h/mL | AUC (in vivo; 500 mg/kg): 238 µg·h/mL | AUC (in vivo; 1000 mg/kg): 306 µg·h/mL | unbound mouse plasma fraction (fup): 0.379 | IC50 (hCoV-229E 3CLPro): 307 nM | EC50 (in vitro [4]): > 36000 nM | EC50 (SARS-CoV-2; [11]): 140 nM | EC50 (MERS-CoV [6]; [12]): 460 nM | EC50 (MERS-CoV [6]; [13]): 390 nM | EC90 (MERS-CoV [6]; [14]): 541 ± 10 nM | EC50 (MERS-CoV [6]; read-out: EC50 Mean ± SD): 463 ± 8 nM | IC50 (hCoV-NL63 3CLPro): 167 nM | EC50 (hCoV-OC43): 370 nM | IC50 (SARS-CoV-1 3CLPro): 19.2 nM | plasma levels at troughs versus PBA EC90 [10]: above the PBA EC90 | IC50 (MERS-CoV [7]; [15]): 360 nM | IC50 (MERS-CoV [7]): 362 ± 65 nM | IC50 (hCoV-OC43 3CLPro): 17 nM | PFU assay of lung homogenate (MERS-CoV EMC 2012): no plaques were formed | decrease in viral burden by PFU assay compared to vehicle-treated mice (MERS-CoV EMC 2012): ~ 6 log | lung pathology (H&E, semi-quantitative) (MERS-CoV EMC 2012): notable reduction in lung pathology | reduction in viral burden compared to vehicle-control group (MERS-CoV EMC 2012): 3 log TCID50 | reduction in viral load by PFU assay in comparison to nirmatrelvir (MERS-CoV EMC 2012): 2.9 log and 3.6 log | viral genomic RNA in lung tissue by RT-PCR (MERS-CoV EMC 2012): did not observe a significant reduction | reduction in viral burdens in the lungs (MERS-CoV EMC 2012; po): > 6 log orders
